Source: paper PMC11887051, “Discovery of ONO-2920632 (VU6011887): A Highly Selective and CNS Penetrant TREK-2 (TWIK-Related K+ Channel 2) Preferring Activator In Vivo Tool Compound” (ACS Chemical Neuroscience, 2025)
Where two headings read alike, the source gives them in different places.

Key:
rodents = system: rodents; parameters: method as in PMID 32851651; details: cited from earlier work
TREK-1 [1] = biological target: T1, TREK-1 (Homo sapiens, UniProt O95069); parameters: method as in PMID 32851651; details: read-out: functional EC50 for activation of TREK-1; cited from earlier work
T1 sequence (O95069 1-426): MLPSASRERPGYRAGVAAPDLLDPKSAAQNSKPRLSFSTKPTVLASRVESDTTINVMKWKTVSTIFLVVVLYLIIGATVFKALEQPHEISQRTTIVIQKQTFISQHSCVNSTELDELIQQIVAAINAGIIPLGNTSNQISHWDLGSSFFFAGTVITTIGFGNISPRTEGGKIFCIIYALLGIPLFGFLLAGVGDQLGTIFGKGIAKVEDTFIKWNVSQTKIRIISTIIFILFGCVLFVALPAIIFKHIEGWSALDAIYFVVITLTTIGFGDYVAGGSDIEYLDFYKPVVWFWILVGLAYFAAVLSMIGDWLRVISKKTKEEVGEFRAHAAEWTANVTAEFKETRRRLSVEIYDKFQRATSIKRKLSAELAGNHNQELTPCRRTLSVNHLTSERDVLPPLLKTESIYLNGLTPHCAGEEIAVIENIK

TREK-2 = biological target: T2, TREK-2 (Homo sapiens, UniProt P57789); assay: TREK-2 activation, BL-1249 series (assay not given); assay type: cell-based; details: assay format not stated
T2 sequence (P57789 1-538): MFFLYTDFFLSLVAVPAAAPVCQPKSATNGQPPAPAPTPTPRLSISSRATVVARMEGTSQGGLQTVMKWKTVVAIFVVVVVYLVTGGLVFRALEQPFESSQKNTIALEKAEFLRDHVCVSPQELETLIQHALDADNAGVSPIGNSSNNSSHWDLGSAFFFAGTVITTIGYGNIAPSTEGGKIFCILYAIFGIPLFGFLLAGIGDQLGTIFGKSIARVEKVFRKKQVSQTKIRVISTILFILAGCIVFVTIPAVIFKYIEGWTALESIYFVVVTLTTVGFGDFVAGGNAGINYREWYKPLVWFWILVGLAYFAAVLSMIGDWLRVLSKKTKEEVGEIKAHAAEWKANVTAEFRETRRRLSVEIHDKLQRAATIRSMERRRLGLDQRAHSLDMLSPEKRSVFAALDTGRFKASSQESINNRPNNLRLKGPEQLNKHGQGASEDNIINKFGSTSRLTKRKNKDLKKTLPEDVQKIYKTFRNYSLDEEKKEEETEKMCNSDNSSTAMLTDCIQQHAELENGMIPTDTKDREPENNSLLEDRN

TREK-1 [2] = biological target: T1, TREK-1; assay: TREK-1 activation, BL-1249 series (assay not given); assay type: cell-based; details: assay format not stated
[3] = rat plasma protein binding (equilibrium dialysis); assay type: in vitro ADME; details: pH 7.4, read-out: rat plasma fu
Protocol: In vitro Plasma protein binding and Brain homogenate binding: Determination of fraction unbound (f u) in plasma was conducted in vitro via equilibrium dialysis using HTDialysis (HTD) membrane plates. The top half of the plate was filled with 100 uL of Dubelco’s Phosphate Buffered Saline, pH 7.4 (DPBS). Compounds were diluted into plasma from each species (5 µM final concentration), which was aliquoted in triplicate to the ‘bottom half’ of the prepared HTD plate wells. The HTD plate was sealed and incubated for 6 hours at 37 °C. Following incubation, each well (both top and bottom halves) were transferred (20 µL) to the corresponding wells of a 96-shallow-well (V-bottom) plate. The daughter plates were then matrix-matched (DPBS side wells received equal volume of plasma, and plasma side wells received equal volume of DPBS), and extraction solution (120 µL; acetonitrile containing 50 nM carbamazepine as IS) was added to all wells of both daughter plates to precipitate protein and extract test article. The plates were then sealed and centrifuged (3500 rcf) for 10 minutes at ambient temperature. Supernatant (60 µL) from each well of the daughter plates was then transferred to the corresponding wells of new daughter plates (96-shallow-well, V bottom) containing water (Milli-Q, 60 µL/well), and the plates were sealed in preparation for LC-MS/MS analysis (see LC-MS/MS analysis method below).
The unbound fraction (f u) was calculated following the equation below, and mean values for each species were calculated from 3 replicates. […]
Fraction unbound for both plasma and brain samples was determined using Equation 4.
Equation 4 Determination of fraction unbound in plasma. […]

[4] = rat predicted hepatic clearance (hepatic microsomes); assay type: in vitro ADME
Protocol: Intrinsic clearance: Human or rat hepatic microsomes (0.5 mg/mL) and 1 µM test compound were incubated in 100 mM potassium phosphate pH 7.4 buffer with 3 mM MgCl2 at 37 °C with constant shaking. After a 5 min preincubation, the reaction was initiated by the addition of NADPH (1 mM). At selected time intervals (0, 3, 7, 15, 25, and 45 min), aliquots were taken and subsequently placed into a 96-well plate containing cold acetonitrile with internal standard (50 ng/mL carbamazepine). Plates were then centrifuged at 3000 rcf (4 °C) for 10 min, and the supernatant was transferred to a separate 96-well plate and diluted 1:1 with water for LC/MS/MS analysis. The in vitro half-life ( 1/2, min, Eq. 1), intrinsic clearance (CLint, mL/min/kg, Eq. 2), and subsequent predicted hepatic clearance (CLhep, mL/min/kg, Eq. 3) was determined employing the […]
where k represents the slope from linear regression analysis of the natural log percent remaining of a test compound as a function of incubation time […]
(2) CLint = in vitroT1/2 x mg microsomes x gram liver x kg body wt ascale-up factors: of 20 (human) or 45 (rat) […]
where Qh (hepatic blood flow, mL/min/kg) is 21 (human) or 70 (rat).
LC/MS/MS Bioanalysis of Samples from Plasma Protein Binding and Intrinsic Clearance […]
Samples were analyzed on a Thermo Electron TSQ Quantum Ultra triple quad mass spectrometer (San Jose, CA) via electrospray ionization (ESI) with two Themo Electron Accella pumps (San Jose, CA), and a Leap Technologies CTC PAL autosampler (Carrboro, NC). Analytes were separated by gradient elution on a dual column system with two Thermo Hypersil Gold (2.1 x 30 mm, 1.9 µm) columns (San Jose, CA) thermostated at 40 °C. HPLC mobile phase A was 0.1% formic acid in water and mobile phase B was 0.1% formic acid in acetonitrile. The gradient started […]
for 0.2 min; returned to 10% B in 0.1 min. The total run time was 1.3 min and the HPLC flow rate was 0.8 mL/min. While pump 1 ran the gradient method, pump 2 equilibrated the alternate column isocratically at 10% B. Compound optimization, data collection, and processing was performed using Thermo Electron's QuickQuan software (v2.3) and Xcalibur (v2.0.7 SP1).

EC50 (TREK-2) [µM]	Emax (TREK-2) [%]	EC50 (TREK-1 [2]) [µM]	Emax (TREK-1 [2]) [%]	fraction unbound at 6 h, 5 µM [3]	rat CLhep (predicted hepatic clearance) [4] [mL/min/kg]	SMILES	morphine-like adverse events at efficacious doses (rodents)	antinociceptive activity (rodents; naïve rodents and models of neuropathic and inflammatory pain)	EC50 (TREK-1 [1]) [µM]
–	–	–	–	–	–	N#C/C(=C\c1ccoc1)C(=O)O [Compound 3]	did not induce respiratory depression, rewarding effects, depression, constipation or other morphine-inducing adverse events	antinociceptive activity	37
12.9	129	3.6	67	0.042	26.8	O=c1[nH]c(-c2ccc(F)cc2Nc2cccc(C(F)(F)F)c2)no1 [Compound 11]	–	–	–
